This is an account of results in patent US10100008B2, “Immunostimulating agent” (AJINOMOTO CO., INC., priority 2014, dated 2018).

Data set [1] has as its system anti-influenza IgG antibody. The data set is described as follows: Intranasal influenza vaccine adjuvant test: anti-influenza IgG antibody in nasal cavity wash. It is filed as in vivo, BALB/c mice. To be noted: 4.92 μg with influenza vaccine 20 μl, twice, compared to influenza vaccine single administration group. Here is the method:
(§1) 8-Week-old female BALB/c mice were divided into groups (N=6), and each group was primarily immunized by intranasal administration of (1) saline, (2) influenza vaccine (Influenza HA Vaccine “SEIKEN”, manufactured by Denka Seiken Co. Ltd.) (20 μl) diluted with saline (influenza vaccine single administration group) as an antigen, (3) influenza vaccine (20 μl) and N,N′-bis(octadecanoyl)-L-cystine dimethyl ester (SZ35) (0.55 μg) as an adjuvant diluted with saline, (4) influenza vaccine (20 μl) and N,N′-bis(octadecanoyl)-L-cystine dimethyl ester (SZ35) (1.64 μg) as an adjuvant diluted with saline, and (5) influenza vaccine (20 μl) and N,N′-bis(octadecanoyl)-L-cystine dimethyl ester (SZ35) (4.92 μg) as an adjuvant diluted with saline, each per mouse. […] The obtained serum samples were measured for anti-influenza IgG1 subclass antibody and HI titer assay (hemagglutination inhibition test) was performed. […]
(§2) 0.5 μg/ml influenza vaccine (Influenza HA Vaccine “SEIKEN”, manufactured by Denka Seiken Co. Ltd.) was added to a 96 well plate by 100 μl per well, and the mixture was incubated at 4° C. overnight. […] Thereafter, a reaction quenching liquid (2N sulfuric acid solution) was added (50 μl/well) to discontinue a color developing reaction, and the absorbance (OD Value=450 nm) was measured by a microplate reader.

Data set [2] relates to anti OVA-specific IgG1 subclass antibody. The data set is described as follows: Adjuvant activity test: anti OVA-specific IgG1 subclass antibody in serum after subcutaneous immunization with OVA. It is filed as in vivo, BALB/c mice. To be noted: for production of anti OVA-specific IgG1 subclass antibody: dorsal-subcutaneous. Here is the method:
One week later, the secondary immunization was carried out by dorsal-subcutaneous administration of solutions similar to those of the above-mentioned (1) to (5) again. Two weeks from the secondary immunization, the whole blood and spleen were extracted under anesthesia, and the obtained serum sample was measured for anti OVA-specific IgG1 subclass antibody. A method for measurement of the anti OVA-specific IgG1 subclass antibody in Example 1, and the following Examples 2, 4, 7 to 10 and 13 to 16 is as follows.
To a 96 well plate was added 5 μg/ml OVA at 100 μl/well, and the mixture was incubated at 4° C. overnight. After incubation, the mixture was washed three times with 200 μl of PBS-T (PBS (phosphate buffered saline)+0.05% (v/v) Tween 20) per well, and blocked with 100 μl of 5% FCS (fatal calf serum)/PBS solution per well at room temperature for 1 to 2 hr. Thereafter, the mixture was washed three times with PBS-T (200 μl/well), a diluted serum sample (100 μl/well) or the same amount of 5% FCS/PBS solution as a control was added, and the mixture was incubated at 37° C. for 1 hr. Thereafter, the mixture was washed five times with PBS-T (200 μl/well), a diluted biotinylated anti-mouse IgG1 antibody (100 μl/well) was added, and the mixture was incubated at 37° C. for 45 min. Thereafter, the mixture was washed five times with PBS-T (200 μl/well), a diluted anti-biotin-HRP antibody was added (100 μl/well), and the mixture was incubated at 37° C. for another 30 min. Thereafter, the mixture was washed five times with PBS-T (200 μl/well), TMB substrate solution was added (100 μl/well), and the mixture was incubated at room temperature for 10 to 15 min. Thereafter, a reaction quenching liquid (2N sulfuric acid solution) was added (50 μl/well) to discontinue a color developing reaction, and the absorbance (OD Value=450 nm) was measured by a microplate reader.
One week later, the secondary immunization was carried out by dorsal-subcutaneous administration of solutions similar to those of the above-mentioned (1) to (6) again. Two weeks from the secondary immunization, the whole blood and spleen were extracted under anesthesia, and the obtained serum sample was measured for anti OVA-specific IgG1 subclass antibody.
8-Week-old female BALB/c mice were divided into groups (N=6), and each group was primarily immunized by dorsal-subcutaneous administration of (1) ovalbumin (OVA) ([…] administration group), (2) OVA (10 μg) and, as an adjuvant, N,N′-bis(2-heptylundecanoyl)-L-cystine dimethyl ester (SZ23) ([…]), (3) OVA (10 μg) and N,N′-bis(dodecanoyl)-L-cystine dimethyl ester (SZ24) ([…]), and (4) saline (saline single administration group), each per mouse. One week later, the secondary immunization was carried out by dorsal-subcutaneous administration of solutions similar to those of the above-mentioned (1) to (4) again. Two weeks from the secondary immunization, the whole blood was extracted under anesthesia, and the obtained serum sample was measured for anti OVA-specific IgG1 subclass antibody. SZ24 is disclosed in JP-A-4-230359, which is incorporated herein by reference in its entirety.
8-Week-old female BALB/c mice were divided into groups (N=6), and each group was primarily immunized by dorsal-subcutaneous administration of (1) ovalbumin (OVA) ([…] administration group), (2) OVA (10 μg) and, as an adjuvant, N,N′-bis(2-tetradecylhexadecanoyl)-L-cystine dimethyl ester (SZ37) (0.256 μmol) added to saline, (3) OVA (10 μg) and N,N′-bis(2-octadecyleicosanoyl)-L-cystine dimethyl ester (SZ38) (0.256 μmol) added to saline, (4) OVA (10 μg) and SZ37 (0.256 μmol) dissolved or dispersed in 5% αCD-added saline, and (5) OVA (10 μg) and SZ38 (0.256 μmol) dissolved or dispersed in 5% αCD-added saline, each per mouse. One week later, the secondary immunization was carried out by dorsal-subcutaneous administration of solutions or dispersions similar to those of the above-mentioned (1) to (5) again. […]

The subject of data set [3] is HA antigen (A/California/7/2009(H1N1)). It is filed as in vivo, BALB/c mice. To be noted: intranasal, twice, compared to influenza vaccine single administration group.
The test system of data set [4] is anti-influenza IgG1 subclass antibody. As to the kind of experiment: Intranasal influenza vaccine adjuvant test: anti-influenza IgG1 subclass antibody in serum. Conditions: twice, compared to influenza vaccine single administration group. It is filed as in vivo, BALB/c mice. Here is the method:
8-Week-old female BALB/c mice were divided into groups (N=6), and each group was primarily immunized by intranasal administration of (1) saline, (2) influenza vaccine (Influenza HA Vaccine “SEIKEN”, manufactured by Denka Seiken Co. Ltd.) (20 μl) diluted with saline (influenza vaccine single administration group) as an antigen, (3) influenza vaccine (20 μl) and N,N′-bis(octadecanoyl)-L-cystine dimethyl ester (SZ35) (0.55 μg) as an adjuvant diluted with saline, (4) influenza vaccine (20 μl) and N,N′-bis(octadecanoyl)-L-cystine dimethyl ester (SZ35) (1.64 μg) as an adjuvant diluted with saline, and (5) influenza vaccine (20 μl) and N,N′-bis(octadecanoyl)-L-cystine dimethyl ester (SZ35) (4.92 μg) as an adjuvant diluted with saline, each per mouse. Two weeks later, the secondary immunization was carried out by intranasal administration of solutions similar to those of the above-mentioned (1) to (5) again. Two weeks from the secondary immunization, the whole blood was extracted under anesthesia, and nasal cavity washing was performed. The obtained serum samples were measured for anti-influenza IgG1 subclass antibody and HI titer assay (hemagglutination inhibition test) was performed. As a nasal cavity wash, thorax of mouse was opened to expose trachea, the trachea was incised, an Atom venous catheter with clause was inserted and 1 mL of saline was injected. The liquid discharged from the nose was centrifuged at 10000 g for 3 min, and the supernatant was recovered and used as a nasal cavity wash sample. The nasal cavity wash sample was subjected to the measurement of anti-influenza IgA antibody and IgG antibody. The measurement method was as follows.
as §2

Data set [5] relates to anti-influenza IgA antibody. As to the kind of experiment: Intranasal influenza vaccine adjuvant test: anti-influenza IgA antibody in nasal cavity wash. It is filed as in vivo, BALB/c mice. Conditions: 4.92 μg with influenza vaccine 20 μl, twice, compared to influenza vaccine single administration group. Here is the method:
as §1, §2

Data set [6] concerns Mouse macrophage-like cell line RAW. The data set is described as follows: Immunostimulatory effect on mouse macrophage-like cell line (CCK-8 cell proliferation, Stimulation Index). It is filed as cell-based. To be noted: 24 hr, compared to well added only with medium.
Data set [7] relates to Human monocyte cell line THP-1. The data set is described as follows: Immunostimulatory effect on human monocyte cell line (CCK-8 cell proliferation, Stimulation Index). The format is cell-based. To be noted: 24 hr, compared to well added only with medium.
Data set [8] relates to anti OVA-specific IgE antibody. As to the kind of experiment: Allergy induction activity test: anti OVA-specific IgE antibody in serum. The format is in vivo, BALB/c mice. To be noted: dorsal-subcutaneous, compared to OVA single administration group. Here is the method:
8-Week-old female BALB/c mice were divided into groups (N=6), and each group was primarily immunized by dorsal-subcutaneous administration of (1) ovalbumin (OVA) (10 μg) dissolved in saline as an antigen (OVA single administration group), (2) OVA (10 μg) and, as an adjuvant, N,N′-bis(2-heptylundecanoyl)-L-cystine dimethyl ester (SZ23) (2.56 μmol) (corresponding to 0.2 mg based on aluminum hydroxide gel adjuvant) dissolved in saline (SZ23; 2.56 μmol addition group), (3) OVA (10 μg) and SZ23; 0.256 μmol dissolved in saline (SZ23; 0.256 μmol addition group), (4) OVA (10 μg) and SZ23; 0.0256 μmol dissolved in saline (SZ23; 0.0256 μmol addition group), (5) OVA (10 μg) and aluminum hydroxide gel adjuvant (2.56 μmol) (0.2 mg) dissolved in saline (ALUM addition group, positive control), and (6) saline (saline single administration group), per each mouse. One week later, the secondary immunization was carried out by dorsal-subcutaneous administration of solutions similar to those of the above-mentioned (1) to (6) again. Two weeks from the secondary immunization, the whole blood and spleen were extracted under anesthesia, and the obtained serum sample was measured for anti OVA-specific IgG1 subclass antibody.
The serum sample obtained in Example 2 was measured for an anti OVA-specific IgE antibody. The measurement method of the anti OVA-specific IgE antibody is as follows.
DS mouse IgE ELISA (OVA) kit manufactured by DS Pharma Biomedical Co., Ltd. was used. The protocol is briefly shown below.
The serum sample and a standard reagent for drawing an analytical curve were diluted with a buffer and, after stirring, left standing at room temperature for 10 min. The sample and the standard solution were added to a plate bound with an IgE capture antibody in advance and, after stirring, the mixture was left standing at room temperature for 60 min. […] A reaction quenching liquid was added, the mixture was stirred, and the absorbance (OD Value=450 nm) was immediately measured.

Setting [9] is: 0.256 μmol dispersed in 5% αCD-added saline with OVA 10 μg, compared to control (OVA in 5% αCD-added saline).
[10] abbreviates: 2.56 μmol in saline with OVA 10 μg, primary + secondary immunization, serum two weeks after, compared to OVA single administration group.
The mark [11] stands for this setting: 0.55 μg with influenza vaccine 20 μl.
[12] abbreviates: 1.64 μg with influenza vaccine 20 μl.
The mark [13] stands for this setting: 4.92 μg with influenza vaccine 20 μl.

Each structure is given as a SMILES string. Where two headings read alike, the source gives them in different places.

Take `CCCCCCCCCCCCCCCCCC(=O)N[C@@H](CSSC[C@H](NC(=O)CCCCCCCCCCCCCCCCC)C(=O)OC)C(=O)OC` [SZ35, N,N′-bis(octadecanoyl)-L-cystine dimethyl ester]: in data set [1], the “production of anti-influenza IgG antibody in the nasal cavity wash” value was “significantly increased”. Also, the “production of anti OVA-specific IgG1 subclass antibody” value in data set [2] (setting [9]) and in data set [2] (setting [10]) was “significantly increased” throughout. For the same compound, the “HI antibody value in the serum” value in data set [3] (setting [11]), in data set [3] (setting [12]) and in data set [3] (setting [13]) was “significantly increase” in each case. Besides, the “production of anti-influenza IgG1 subclass antibody in the serum” value in data set [4] (setting [11]), in data set [4] (setting [12]) and in data set [4] (setting [13]) was “significantly increased” in each case. The “production of anti-influenza IgA antibody in the nasal cavity wash” value in data set [5] was “significantly increased”.

Take `CCCCCCCCCC(CCCCCCC)C(=O)N[C@@H](CSSC[C@H](NC(=O)C(CCCCCCC)CCCCCCCCC)C(=O)OC)C(=O)OC` (stereo partly drawn) [SZ23, N,N′-bis(2-heptylundecanoyl)-L-cystine dimethyl ester]: the “cell proliferation (Stimulation Index)” value in data set [6] (final concentration 4 nM) is given as “significant cell proliferation”; in data set [6] (final concentration 400 nM), “significant cell proliferation”; in data set [6] (final concentration 4 μM) it was “significant cell proliferation”; in data set [7] (THP-1, final concentration 400 nM), “significant cell proliferation”; in data set [7] (THP-1, final concentration 4 μM) it was “significant cell proliferation”. Further, the “production of anti OVA-specific IgG1 subclass antibody” value is reported as “significantly increased” in data set [2] (0.0256 μmol in saline with OVA 10 μg, compared to OVA single administration group); “significantly increased” in data set [2] (setting [9]); “significantly increased” in data set [2] (0.256 μmol in saline with OVA 10 μg, compared to OVA single administration group); “significantly increased” in data set [2] (setting [10]). In addition, the “production of anti OVA-specific IgG1 subclass antibody relative to ALUM addition group” value in data set [2] (all addition groups 2.56, 0.256 and 0.0256 μmol in saline, compared to aluminum hydroxide gel adjuvant 2.56 μmol (0.2 mg)) is “of the same level”. Further, the “production of anti OVA-specific IgE antibody” value in data set [8] (0.0256 μmol in saline with OVA 10 μg), in data set [8] (0.256 μmol in saline with OVA 10 μg) and in data set [8] (2.56 μmol in saline with OVA 10 μg) was “not observed” throughout.
